{
  "source": "patent US20190167676A1",
  "about": "“METHODS FOR IMPROVING RESISTANCE TO SKELETAL MUSCLE FATIGUE” (Cytokinetics, Inc., priority 2012, published 2019)",
  "key": {"rat EDL muscle": {"system": "rat EDL muscle", "assay": "Isometric tension and relaxation time in rat EDL muscle in situ", "format": "in vivo", "procedure": "As with the in vitro FDB muscle studies, another predominately fast muscle fiber type, the extensor digitorum long us (EDL), was stimulated toward contractions in unconscious rats in situ. In these isometric muscle studies (measuring force at fixed length), force, time to peak contraction, time to half relaxation after cessation of stimulation (RT1/2) and baseline tension were determined. These studies have the advantage that the nerve and muscle pair were intact and had typical blood flow to the muscle under investigation.\nRats were placed under anesthesia using isoflurane and the skin around the experimental leg was removed. The distal end of the EDL muscle and its associated tendon were then isolated. The rat was then placed on the platform of an Aurora in-situ muscle analysis rig (806C), maintained at body temperature via a circulating water system. The knee was immobilized in a clamp between two sharpened screws and the distal tendon cut and tied to the arm of a force transducer (Aurora Scientific, Ontario, Canada) using a silk suture. The muscle was stimulated directly via the peroneal nerve. […] Muscle contractile properties were assessed by applying an electrical current to the nerve and recording the force generated by the muscle via a servomotor. […]"}, "healthy rats [1]": {"system": "healthy rats", "assay": "Rotarod running assay", "format": "in vivo, rat", "conditions": "for Run time (s) mean ± SEM: 30 minutes prior", "procedure": "Female Sprague Dawley rats (210-260 g) were obtained from Charles River Laboratories and acclimated in the test facility for a minimum of six days prior to the start of the study. All rats were trained the day prior to compound administration. Training consisted of placing the rats on the rotating drum (rod), starting at a low constant speed (10 RPM). The rats were acclimated to walk on the drum for 5 minutes before resting. A second training session of an increasing speed from 14-16 RPM was initiated after all rats in the experimental group had finished the first training session. […] On the day of the experiment animals were dosed thirty minutes prior to start of test. The test began with a 5 minute primer session, whereby animals were run at an increasing speed from 14-16 RPM over 5 minutes. Rats were then run at a constantly accelerating rate from 12 RPM to 25 RPM over the course of 10 minutes. […] Time to fall was recorded, with the test being terminated at 900 seconds. Compound A was administered via oral gavage 30 minutes prior to assessment. Each dose was formulated as a suspension containing 0.2% Tween 80, 0.5% HPMC and water. Dose volume was 5 mL/kg. Vehicle (0.2% Tween 80, 0.5% HPMC and water) was administered similarly. Control treatments were chosen based on association with amelioration of central fatigue (caffeine, Davis 2003), muscular fatigue (creatine, Boyadjiev, 2007) and dual central/muscular fatigue (phosphoserine, […] 1976)."}, "[2]": {"system": "patients with peripheral artery disease and claudication", "assay": "Bilateral heel raise test, Phase II study", "format": "in vivo, human", "procedure": "This study was a double-blind, randomized, placebo-controlled, three-period cross-over, hypothesis generating Phase II study in patients with peripheral artery disease and claudication. […] Secondary objectives included (a) evaluation and characterization of the relationship, if any, between the doses and plasma concentrations of Compound A and its pharmacodynamic effects, and (b) evaluation of the safety and tolerability of Compound A administered as single doses.\nSingle doses of each of 375 mg Compound A, 750 mg Compound A and placebo were administered in random order with a 6 to 10 day wash out between each dose. […] Results were analyzed using a repeated-measures ANCOVA with treatment, sequence, period, baseline, and patient in the model. […]\nIn the bilateral heel raise test, the lateral aspect of the ankle on the dominant leg was instrumented with an electromechanical goniometer connected to a PC-based data collection system to monitor and record ankle angle position and range of motion (Noraxon U.S.A., Inc., Scottsdale, Ariz.). […] The total number of heel raises, time, and a calculated index of work performed were assessed from the beginning of test to the onset of claudication and to maximal exercise. An index of work performed was calculated as follows: Heel Raise Work Index (HRWI)=(sinθ°*foot length)*body mass."}, "[3]": {"assay": "Plasma concentrations, Phase II study", "format": "in vivo, human"}, "healthy rats [4]": {"system": "healthy rats", "assay": "Fatigue-rotarod running time test", "format": "in vivo, rat", "conditions": "between 0.3 mg/kg and 100 mg/kg, FIG. 16", "procedure": "The effect of the fast skeletal muscle troponin activator 1-(2-(((trans)-3-fluoro-1-(3-fluoropyridin-2-yl)cyclobutyl)methylamino)pyrimidin-5-yl)-1H-pyrrole-3-carboxamide (Compound C) on muscle fatigue in healthy rats was determined by a rotarod running time test. Compound C was administered to test rats at the doses between 0.3 mg/kg and 100 mg/kg (˜70 nM-28 μM). On the day of the assessment, the animals began by running at an increasing speed from 14-16 RPM over 5 minutes. Rats were then run at a constantly accelerating rate from 12 RPM to 25 RPM over the course of 10 minutes. Time to fall was recorded, with the test being terminated at 600 seconds. The plasma levels were determined at the end of the experiments (not at Cmax). The plasma levels for the indicated doses were determined to be the following: […]"}, "[5]": {"system": "skinned fast skeletal muscle fibers from rabbit psoas muscle", "conditions": "cited from earlier work"}},
  "data": [
    {"smiles": "C#Cc1cnc2nc(O)n(C(CC)CC)c2n1", "note": "[Compound A, 6-ethynyl-1-(pentan-3-yl)-1H-imidazo[4,5-b]pyrazin-2-ol]", "values": [
      {"measurement": "increase in relaxation time", "setting": "rat EDL muscle; 10 mg/kg", "value": "approximately 3.5 fold"},
      {"measurement": "sub-maximal and maximal force in situ", "setting": "rat EDL muscle; femoral artery catheter, dose escalation up to 10 mg/Kg", "value": "increase in sub-maximal force without increasing maximal force"},
      {"measurement": "Run time (s) mean ± SEM", "setting": "healthy rats [1]; 0.3 mg/kg oral gavage", "value": "301 ± 36", "unit": "s"},
      {"measurement": "Run time (s) mean ± SEM", "setting": "healthy rats [1]; 1 mg/kg oral gavage", "value": "334 ± 29", "unit": "s"},
      {"measurement": "Run time (s) mean ± SEM", "setting": "healthy rats [1]; 3 mg/kg oral gavage", "value": "389 ± 65", "unit": "s"},
      {"measurement": "change of running time", "setting": "healthy rats [1]; 3 mg/kg, maximum dose tested", "value": "more than a doubling of running time"},
      {"measurement": "relationship between plasma concentrations and outcomes in the Heel Raise Test", "setting": "[2]; PK/PD analysis, FIG. 14", "value": "strong positive relationship"},
      {"measurement": "calf muscle performance by heel raise testing", "setting": "[2]; single doses 375, 500, 750 mg, 3 and 6 hours after dosing", "value": "increased calf muscle performance"},
      {"measurement": "mean plasma concentrations vs dose", "setting": "[3]; 375, 500, 750 mg single doses", "value": "relatively dose proportional increases"},
      {"measurement": "mean plasma concentrations over 24-hour observation period", "setting": "[3]; even at the 375 mg dose", "value": "remained within the pharmacologically active range"},
      {"measurement": "running time vs vehicle controls", "setting": "healthy rats [4]", "value": "significant increases"},
      {"measurement": "force-calcium relationship", "setting": "[5]", "value": "leftward-shift of the force-calcium relationship"}
    ]}
  ]
}
